{
  "source": "patent US11504386B2",
  "about": "“Preparation method for various novel fucosyl oligosaccharides and use thereof” (Korea University Research and Business Foundation, priority 2017, dated 2022)",
  "key": {"E. coli O1:K1:H7": {"system": "E. coli O1:K1:H7", "experiment": "Capability of pathogenic microorganism to ferment FGal (E. coli)", "format": "cell-based", "settings": "medium with 3 g/L purified FGal, 37° C., FIG. 9", "description": "(§1) To verify the prebiotic effect of FGal, the cell growth of strains such as Bifidobacterium longum subsp. infantis ATCC 15697 and Bifidobacterium bifidum DSM 20082 was monitored. In addition, to conduct a test for the capabilities of pathogenic microorganisms to ferment FGal, the cell growth of strains such as E. coli O1:K1:H7 and Salmonella enterica serovar typhimurium was monitored. At this time, the medium contained 10 g/L of BactoPeptone, 5 g/L of yeast extract, 2 g/L of K2HPO4 (anhydrous), 5 g/L of Na acetate (anhydrous), 2 g/L of NH4 citrate tribasic, 0.2 g/L of Mg sulfate heptahydrate, 0.05 g/L of Mn sulfate, 1 mL/L of Tween 80 (polysorbate 80), 0.5 g/L of cysteine, and 3 g/L of purified FGal, and the strains were cultured at 37° C."}, "hippocampal neurons": {"system": "hippocampal neurons", "settings": "hippocampal neurons (brain neural cells) treated with FGal; stated as known; cited from earlier work"}, "[1]": {"system": "Salmonella enterica serovar typhimurium", "experiment": "Capability of pathogenic microorganism to ferment FGal (Salmonella)", "format": "cell-based", "settings": "medium with 3 g/L purified FGal, 37° C., FIG. 9", "description": "as §1"}, "[2]": {"system": "Bifidobacterium longum subsp. infantis ATCC 15697", "experiment": "Prebiotic effect: cell growth and metabolism of FGal by Bifidobacterium longum subsp. infantis", "format": "cell-based", "settings": "medium with 3 g/L purified FGal, 37° C., FIG. 8", "description": "as §1"}, "[3]": {"system": "Bifidobacterium bifidum DSM 20082", "experiment": "Prebiotic effect: cell growth and metabolism of FGal by Bifidobacterium bifidum", "format": "cell-based", "settings": "medium with 3 g/L purified FGal, 37° C., FIG. 8", "description": "as §1"}},
  "data": [
    {"compound": "C[C@@H]1O[C@@H](O[C@H]2C(O)O[C@H](CO)[C@H](O)[C@@H]2O)[C@@H](O)[C@H](O)[C@@H]1O", "note": "(stereo partly shown) [FGal, 2′-fucosylgalactose]", "values": [
      {"measurement": "metabolism of FGal by pathogenic microorganism", "setting": "E. coli O1:K1:H7", "value": "unable to metabolize"},
      {"measurement": "growth of nerve cells", "setting": "hippocampal neurons", "value": "promotes the growth of nerve cells"},
      {"measurement": "metabolism of FGal by pathogenic microorganism", "setting": "[1]", "value": "unable to metabolize"},
      {"measurement": "metabolism (fermentation) of FGal by the strain", "setting": "[2]", "value": "decomposed FGal into galactose and fucose through intracellular fucosidase and used both"},
      {"measurement": "metabolism (fermentation) of FGal by the strain", "setting": "[2]; listed as 2-fucosylgalactose", "value": "decomposes 2-fucosylgalactose into galactose and fucose through intracellular fucosidase and uses both"},
      {"measurement": "metabolism (fermentation) of FGal by the strain", "setting": "[3]", "value": "first decomposed FGal into fucose and galactose extracellularly, and then metabolized a small amount of galactose"},
      {"measurement": "metabolism (fermentation) of FGal by the strain", "setting": "[3]; listed as 2-fucosylgalactose", "value": "extracellularly decomposes 2-fucosylgalactose into galactose and fucose, and then uses only galactose"}
    ]}
  ]
}
